Measured values taken from patent US20020182749A1, “Sample evaporative control” (ACLARA BioSciences, Inc., priority 1999, published 2002).
Like-named read-outs stand apart in the source and are kept apart here. Blank lines part the entries; values can stand above or below the compound they belong to.

Assays:
alkaline phosphatase [1] = experiment: competitive inhibition assay, alkaline phosphatase with AutoPhos substrate; type: biochemical
Experimental: The next study evaluated the system using a competitive inhibition assay, 4-Nitrophenyl phosphate (PNPP) (Sigma Chemical Co., St. Louis, Mo.) was used as a non-fluorescent substrate for alkaline phosphatase (20 femtomoles) competing with the AutoPhos substrate. The channel was rinsed with AutoPhos buffer and filled with […] AutoPhos substrate. Into the sample port was introduced 100 nl of PNPP at concentrations varying from 0 to 10 mM and the fluorescent signal was determined at different reaction time points.
The channel was rinsed with AutoPhos buffer and then filled with about 10 μl of 1 mM AutoPhos substrate. 50 nl of alkaline phosphatase was then dispensed into the sample port. The amount of enzyme dispensed into the sample port increased from 31.25 attomole to 62.5 femtomoles by a factor of 2. Enzyme solutions of different concentrations were prepared in individual wells of a 96-well microtitre plate. Fluorescence was excited at 480 nm±20 nm and emission collected at 520±20 nm. The signals were recorded at different time points, 0, 5, 10, 15, up to 35 minutes.
The next assay was a competitive inhibition assay using the following protocol: 4-Nitrophenyl phosphate (PNPP) was used as a non-fluorescent substrate for competing for alkaline phosphatase with AutoPhos substrate. After rinsing the channels with AutoPhos buffer, the channel was filled with 1 mM AutoPhos substrate. 100 nl of PNPP was dispensed at different concentrations ranging form 0 to 60 mM. The fluorescent signal was measured at different reaction time points. The fluorescent signal as a function of different inhibitor concentrations is tabulated as following.

alkaline phosphatase [2] = experiment: alkaline phosphatase inhibition study on capillary electrophoresis card, FDP substrate; type: biochemical; settings: 1.3 mU/ml alkaline phosphatase, 3.33 μM FDP, increasing PNPP
Experimental: The experimental procedure was as follows: the assay well is covered by tape. 5 μl of buffer was added to the reservoirs. 500 nl of the fluorescein or assay mixture was pipetted into the assay well. For the alkaline phosphatase assay, enzyme and substrate with or without inhibitor was mixed in a tube and then 500 nl of the assay mixture was pipetted into the assay well. The detection was performed at 7 mm distance from the injector. The particular conditions for each determination are set forth with the figure.
FIG. 17 illustrates the alkaline phosphatase activity for the different incubation times. As shown in the electropherograms, two product peaks (the first peak is fluorescein mono phosphate and the 2nd peak is fluorescein) are well separated from each other. Additionally, the use of longer incubation time results in more conversion of FDP (fluorescein di-phosphate as a substrate) to the FMP (fluorescein mono-phosphate) and finally to fluorescein. FIG. 18 depicts a linear calibration curve for the alkaline phosphatase using the card. For the inhibition study, PNPP which is a non-fluorescent substrate for the alkaline phosphatase and competes with FDP which is a fluorescent substrate for the enzyme, is added to the assay mixture at a number of different concentrations.

rhodamine-streptavidin = rhodamine-streptavidin (Streptomyces avidinii, UniProt P22629); experiment: FRET binding inhibition, fluorescein-biotin / rhodamine-streptavidin, read at 600 nm; settings: fluorescein-biotin 50 μM, rhodamine-streptavidin 25 μM, varying biotin
Experimental: In another series of studies binding assays were performed using fluorescence resonance energy transfer. The procedure employed is as follows. The channel was rinsed and filled with 25 μl of rhodamine labeled streptavidin and 100 nl of fluorescein labeled biotin dispensed in the sample port. The concentration of the antigen varied from 0 to 100 μM by 2-fold dilutions. The signal detection system was as described, except that emission was detected at 600±20 nm. The energy transfer increased corresponding to the increase in antigen. The study was repeated varying the amount of labeled streptavidin while keeping the biotin-fluorescein at 25 μM. The background FRET signal contributed by rhodamine-streptavidin alone was substantially negligible, when the concentration of rhodamine-streptavidin was greater than about 2 μM. The following tables provide the results for the two studies.
In the next study, the effect of inhibitor on the observed signal was investigated. Fluorescein-biotin was maintained at 50 μM and rhodamine-streptavidin at 25 μM. the signal was read at 600±20 nm at varying concentrations of biotin as a binding inhibitor, with 100 nl of the binding inhibitor being added to the sample port.

[3] = target: T1, rhodamine-labeled streptavidin (Streptomyces avidinii, UniProt P22629); experiment: inhibition of antigen-receptor binding, fluorescein-biotin / rhodamine-labeled streptavidin, read at 520 nm
T1 construct: purchased Molecular Probe
Experimental: In the next study, the channel was filled with varying concentrations of biotin in the range of 0 to 5 μM and 100 nl of rhodamine-labeled streptavidin (625 nM) followed by 100 nl of 1.0 μM fluorescein-biotin added to the sample port. After incubating for 60 min., the signal was detected at 520±20 nm. The results are reported as fraction inhibition. The following tables provide the results.
Using the above reagents and protocol, an inhibition assay was performed. The protocol was to fill the channel with 0, 30, 60, 180, 240, 500, 600, 1000, 5000 […] of biotin, respectively, followed by dispensing 100 nl of rhodamine labeled receptor into the sample port. After dispensing 100 nl of 1.0 μM fluorescein labeled antigen into the sample port, the reaction mixture was incubated for 60 minutes. The fluorescence was recorded by exciting at 480±20 nm and reading the emission at 520 nm±20 nm As the inhibitor concentration increased, the fluorescence intensity increased, indicating an increased inhibition. The increase in the fluorescent signal as a function of inhibitor concentration was converted to the percentage of inhibition.

CYP1A2 = CYP1A2 (Homo sapiens, UniProt P05177); experiment: in vitro
CYP1A2, sequence (P05177 whole entry): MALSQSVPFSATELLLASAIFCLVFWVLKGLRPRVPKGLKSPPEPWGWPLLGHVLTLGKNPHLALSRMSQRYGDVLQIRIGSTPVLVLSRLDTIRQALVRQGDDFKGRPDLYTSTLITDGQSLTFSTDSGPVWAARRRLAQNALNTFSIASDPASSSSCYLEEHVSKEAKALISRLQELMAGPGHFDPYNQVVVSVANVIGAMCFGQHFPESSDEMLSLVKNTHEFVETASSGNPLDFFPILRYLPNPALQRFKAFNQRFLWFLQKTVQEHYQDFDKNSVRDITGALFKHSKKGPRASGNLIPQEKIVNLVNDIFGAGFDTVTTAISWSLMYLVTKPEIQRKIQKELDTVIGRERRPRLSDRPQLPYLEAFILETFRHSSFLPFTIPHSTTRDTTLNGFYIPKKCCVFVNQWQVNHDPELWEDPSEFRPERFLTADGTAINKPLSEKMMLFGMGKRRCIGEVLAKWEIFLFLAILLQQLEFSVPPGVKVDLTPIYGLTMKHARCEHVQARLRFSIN
Experimental: B: Inhibition in CYP450 1A2 Assay:
Make 500 M CEC substrate for 1A2.
For each of the dilutions of furafylline make Buffer Mix:
Add 5 μl of the buffer mix to both of the side wells of the channels. Because the solution contains Pluronic F68, the solution in the middle assay well rises to the top. Dilute CYP1A2 enzyme 2:1 with water.
Add 300 nl of diluted enzyme to assay (middle) well.
Incubate at 37° C. for 35 minutes.
Take RFU readings using Molecular Devices F-max plate reader. F-max settings: Filter pair 390/460; Int.20 ms; speed 10.

alkaline phosphatase [4] = experiment: alkaline phosphatase inhibition in device ports, fluorescein diphosphate substrate; type: biochemical; settings: 30 nl 0.1 nM enzyme
Source text: The upper plate is about 1 mm in height and the lower plate is also about 1 mm in height. The port for introducing solutions is 1 mm in diameter and about 900 to 950 μm in height, while the channel substantially extends the remaining length of the upper sheet. The channel was varied from about 0.2 mm to 3.0 mm in width, where the interface between the port or well and the channel varied, with either the port or the channel determining the area of interface. The reservoirs have a diameter of about 2 mm. The channels were treated with 2N sodium hydroxide for 5 mins. using a vacuum pump to ensure that the basic solution extends through the channels and reservoirs. The ports or wells appear to be unaffected by this treatment, so that the channels and reservoirs have a hydrophilic surface, while the ports have a hydrophobic surface. One or more of the ports are used in each of the studies. Common to each of the experiments is to fill the device with 10 μl of 25 μM fluorescein diphosphate in 50 mM Tris buffer (pH 10.0) added to each of the inlet reservoirs, after prewetting the device.
In the next study, the effect of enzyme inhibitor was investigated. The channel was 1 mm in width. […] The fluorescence development is monitored with a CCD camera. Fluorescence is substantially confined to the ports and the fluorescent signal is related to the concentration of inhibitor introduced into the port.

[5] = read-out: Fraction of Inhibition

SMILES: O=[N+]([O-])c1ccc(OP(=O)(O)O)cc1 [PNPP, 4-Nitrophenyl phosphate]
- Fluorescent Signal (alkaline phosphatase [1]; Inhibitor conc. 0.001 mM): 4.5 ×103
- Fluorescent Signal (alkaline phosphatase [1]; Inhibitor conc. 0.0025 mM): 4.0 ×103
- Fluorescent Signal (alkaline phosphatase [1]; Inhibitor conc. 0.005 mM): 4.0 ×103
- Fluorescent Signal (alkaline phosphatase [1]; Inhibitor conc. 0.01 mM): 3.5 ×103
- Fluorescent Signal (alkaline phosphatase [1]; Inhibitor conc. 0.02 mM): 2.6 ×103
- Fluorescent Signal (alkaline phosphatase [1]; Inhibitor conc. 0.3125 mM): 2.0 ×103
- Fluorescent Signal (alkaline phosphatase [1]; Inhibitor conc. 0.625 mM): 1.6 ×103
- Fluorescent Signal (alkaline phosphatase [1]; Inhibitor conc. 1.25 mM): 1.6 ×103
- Fluorescent Signal (alkaline phosphatase [1]; Inhibitor conc. 5 mM): 1.6 ×103
- Fluorescent Signal (alkaline phosphatase [1]; Inhibitor conc. 10 mM): 1.5 ×103
- Fluorescence Signal (alkaline phosphatase [1]; [Inhibitor] 0.001 mM): 4527 RFU
- Fluorescence Signal (alkaline phosphatase [1]; [Inhibitor] 0.0025 mM): 4000 RFU
- Fluorescence Signal (alkaline phosphatase [1]; [Inhibitor] 0.005 mM): 4000 RFU
- Fluorescence Signal (alkaline phosphatase [1]; [Inhibitor] 0.01 mM): 3500 RFU
- Fluorescence Signal (alkaline phosphatase [1]; [Inhibitor] 0.02 mM): 2600 RFU
- Fluorescence Signal (alkaline phosphatase [1]; [Inhibitor] 0.3125 mM): 2000 RFU
- Fluorescence Signal (alkaline phosphatase [1]; [Inhibitor] 0.625 mM): 1600 RFU
- Fluorescence Signal (alkaline phosphatase [1]; [Inhibitor] 1.25 mM): 1600 RFU
- Fluorescence Signal (alkaline phosphatase [1]; [Inhibitor] 5 mM): 1600 RFU
- Fluorescence Signal (alkaline phosphatase [1]; [Inhibitor] 10 mM): 1500 RFU
- Fluorescence Signal (alkaline phosphatase [1]; [Inhibitor] 60 mM): 750 RFU
- effect on FDP alkaline phosphatase activity (alkaline phosphatase [2]): reduction of FDP alkaline phosphates activity

SMILES: O=C(O)CCCC[C@@H]1SC[C@@H]2NC(=O)N[C@@H]21 [biotin, D(+)-Biotin]
- energy transfer (FRET signal at 600 nm) (rhodamine-streptavidin): decreased with increase of binding inhibitor
- inhibition at 0.03 µM ([3]; read-out: % of Inhibition): 3.85%
- inhibition at 0.06 µM ([3]; read-out: % of Inhibition): 3.1%
- inhibition at 0.18 µM ([3]; read-out: % of Inhibition): 5%
- inhibition at 0.24 µM ([3]; read-out: % of Inhibition): 5.14%
- inhibition at 0.5 µM ([3]; read-out: % of Inhibition): 22.4%
- inhibition at 0.6 µM ([3]; read-out: % of Inhibition): 36.6%
- inhibition at 1 µM ([3]; read-out: % of Inhibition): 95%
- inhibition at 5 µM ([3]; read-out: % of Inhibition): 100%
- inhibition at 0.03 µM [3, 5]: 3.85%
- inhibition at 0.06 µM [3, 5]: 3.1%
- inhibition at 0.18 µM [3, 5]: 5%
- inhibition at 0.24 µM [3, 5]: 5.14%
- inhibition at 0.5 µM [3, 5]: 22.4%
- inhibition at 0.6 µM [3, 5]: 36.6%
- inhibition at 1 µM [3, 5]: 95%
- inhibition at 5 µM [3, 5]: 100%

- inhibition at 35 min, 0.133 µM (CYP1A2): 2%
- inhibition at 35 min, 0.665 µM (CYP1A2): 31%
- inhibition at 35 min, 1.33 µM (CYP1A2): 64%
- inhibition at 35 min, 6.65 µM (CYP1A2): 72%
- inhibition at 35 min, 13.3 µM (CYP1A2): 75%
- inhibition at 35 min, 66.5 µM (CYP1A2): 77%
- inhibition at 35 min, 133 µM (CYP1A2): 78%
SMILES: Cc1nc2c([nH]1)c(=O)n(C)c(=O)n2Cc1ccco1 [furafylline]

SMILES: Cc1ncc(COP(=O)(O)O)c(C=O)c1O [pyridoxal phosphate]
- fluorescence development in port (alkaline phosphatase [4]; 30 nl of 25 μM inhibitor): only moderately inhibited
- fluorescence development in port (alkaline phosphatase [4]; 30 nl of 250 μM inhibitor, at 30 mins): still very faint
